In US8658383B2, “Sweet taste receptor-expressing construct, cell body expressing the same, and utilization thereof” (T. Hasegawa Co., Ltd., priority 2009, dated 2014):
Residues, ends and D or L forms follow the SMILES beside them.

Molecular target: T1, human sweet taste receptor (hT1R2+hT1R3) (Homo sapiens, UniProt Q7RTX0+Q8TE23)
T1 sequence (Q8TE23 20-839): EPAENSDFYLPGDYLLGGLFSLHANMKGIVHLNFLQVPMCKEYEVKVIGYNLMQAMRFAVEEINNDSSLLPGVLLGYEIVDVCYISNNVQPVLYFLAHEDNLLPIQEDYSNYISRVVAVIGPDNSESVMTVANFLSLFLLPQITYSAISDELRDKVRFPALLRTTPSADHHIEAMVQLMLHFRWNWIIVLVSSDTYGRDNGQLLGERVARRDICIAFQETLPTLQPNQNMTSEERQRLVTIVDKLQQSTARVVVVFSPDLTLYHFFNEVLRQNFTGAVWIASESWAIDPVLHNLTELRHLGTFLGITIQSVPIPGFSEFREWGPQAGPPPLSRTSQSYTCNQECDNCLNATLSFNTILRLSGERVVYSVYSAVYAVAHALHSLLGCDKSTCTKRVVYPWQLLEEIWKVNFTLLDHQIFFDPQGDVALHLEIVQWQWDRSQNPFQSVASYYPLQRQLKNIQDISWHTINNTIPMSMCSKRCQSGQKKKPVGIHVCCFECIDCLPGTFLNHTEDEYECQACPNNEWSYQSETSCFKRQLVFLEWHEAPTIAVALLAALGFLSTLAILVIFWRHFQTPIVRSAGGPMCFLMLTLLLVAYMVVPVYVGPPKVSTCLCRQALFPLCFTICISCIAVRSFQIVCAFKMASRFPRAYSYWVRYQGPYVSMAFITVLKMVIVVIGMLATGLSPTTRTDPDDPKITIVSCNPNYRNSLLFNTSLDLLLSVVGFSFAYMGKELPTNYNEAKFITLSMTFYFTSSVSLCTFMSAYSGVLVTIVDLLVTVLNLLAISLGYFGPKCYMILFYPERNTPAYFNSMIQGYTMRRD
T1 sequence (Q7RTX0 21-852): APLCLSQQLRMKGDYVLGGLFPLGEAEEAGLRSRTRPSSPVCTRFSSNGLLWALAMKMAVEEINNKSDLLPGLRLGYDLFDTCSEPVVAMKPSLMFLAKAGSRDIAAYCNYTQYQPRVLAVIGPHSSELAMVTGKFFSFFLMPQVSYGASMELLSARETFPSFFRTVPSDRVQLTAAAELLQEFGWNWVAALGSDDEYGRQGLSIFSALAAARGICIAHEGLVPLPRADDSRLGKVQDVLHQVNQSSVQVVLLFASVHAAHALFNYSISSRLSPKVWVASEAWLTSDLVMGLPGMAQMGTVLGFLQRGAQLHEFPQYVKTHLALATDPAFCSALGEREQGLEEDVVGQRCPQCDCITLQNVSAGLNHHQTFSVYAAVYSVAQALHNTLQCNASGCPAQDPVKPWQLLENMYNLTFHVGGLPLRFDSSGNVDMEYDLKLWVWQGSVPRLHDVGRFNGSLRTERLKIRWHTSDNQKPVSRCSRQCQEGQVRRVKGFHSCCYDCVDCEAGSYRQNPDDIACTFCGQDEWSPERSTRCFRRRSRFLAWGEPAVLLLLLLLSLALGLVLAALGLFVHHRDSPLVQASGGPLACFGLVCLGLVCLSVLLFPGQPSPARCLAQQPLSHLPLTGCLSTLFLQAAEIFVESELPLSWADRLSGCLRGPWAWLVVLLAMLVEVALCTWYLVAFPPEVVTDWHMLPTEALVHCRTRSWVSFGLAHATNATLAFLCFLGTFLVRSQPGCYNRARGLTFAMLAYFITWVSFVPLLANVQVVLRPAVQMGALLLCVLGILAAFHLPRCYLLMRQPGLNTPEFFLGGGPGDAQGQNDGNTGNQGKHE
Experiment: Automated fluorescent calcium imaging (Fluo-4 AM, FlexStation 3) of cultured cell strain (A)
Assay type: cell-based
Design: The sweet taste receptor subunits T1R2 and T1R3 include an entire part of each subunit
Conditions: Average ± S.E., n = 2

COC(=O)[C@H](Cc1ccccc1)NC(=O)[C@@H](N)CC(=O)O [aspartame] (H-Asp-Phe-OMe)
Change amount of fluorescent intensity (ΔF) (aspartame 0.08 mM): 4.8 ± 0.1 | Change amount of fluorescent intensity (ΔF) (aspartame 5 mM): 31.1 ± 2.4
